Test results: US12679878B2, “CRF2 receptor agonists and their use in therapy” (SANOFI, priority 2020, dated 2026)
≈ marks a conversion by molar mass, not a printed value. Where two headings read alike, the source gives them in different places. Starred links: 1 amine or outer side, 2 acyl side, 3 side chain; linkers in the order of their positions; H or OH if unused. Non-standard residues stand in square brackets, D forms with d. Residues, ends and D or L forms follow the SMILES beside them. Groups on a side chain read outwards from the residue. *: point of attachment. C18 diacid = O=C(O)CCCCCCCCCCCCCCCCC(=O)*; γGlu = O=C(O)[C@H](CCC(=O)[*:2])N[*:1]; AEEA = NCCOCCOCC(=O)O; Aib = CC(C)(N)C(=O)O

Experiments:
[1] = target: T1, human CRF2α receptor (Homo sapiens, UniProt Q13324); experiment: cAMP agonism at human CRF2 α receptor in TeloHEAC cells (Example 7); assay type: cell-based; details: cAMP HTRF, TeloHEAC cells stably expressing human CRF2 α
T1 construct: expressed in transfected cells; host or cells: TeloHEAC
T1 sequence (Q13324 1-411): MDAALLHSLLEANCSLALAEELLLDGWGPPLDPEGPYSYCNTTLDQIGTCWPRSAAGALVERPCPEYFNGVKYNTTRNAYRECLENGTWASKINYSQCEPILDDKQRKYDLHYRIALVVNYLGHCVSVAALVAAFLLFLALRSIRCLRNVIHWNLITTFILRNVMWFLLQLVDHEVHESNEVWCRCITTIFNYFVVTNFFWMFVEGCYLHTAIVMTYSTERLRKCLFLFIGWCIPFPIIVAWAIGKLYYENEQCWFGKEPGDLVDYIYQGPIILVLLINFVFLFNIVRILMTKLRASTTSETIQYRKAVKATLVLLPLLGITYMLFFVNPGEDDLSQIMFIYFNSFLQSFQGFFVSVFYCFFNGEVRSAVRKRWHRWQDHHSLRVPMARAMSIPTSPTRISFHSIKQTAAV
Summary of the method: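 Thawed frozen stably transfected cells in HBSS/20 mM HEPES (0% or 0.1% HSA) plus 2 mM IBMX were exposed to compound at 2000 cells/well for 30 min at room temperature. Intracellular cAMP was read by HTRF (665/620 nm ratio) after 1 h lysis; EC50 was derived with 1000 nM urocortin 2 set as 100%.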

[2] = test system: rat CRF2R α receptor; experiment: cAMP agonism at rat CRF2R α receptor in A7R5 rat aortic smooth muscle cells (Example 8); assay type: cell-based; details: cAMP HTRF, A7R5 rat aortic smooth muscle cell line, 0% HSA
Summary of the method: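 Potency (EC50) is the concentration reaching half-maximal activation, with responses scaled so that 1000 nM urocortin 2 equals 100%. Intracellular cAMP was quantified by homogeneous time-resolved fluorescence at 665/620 nm, 1 h after lysis-buffer reagents. Compound stimulation lasted 30 min at room temperature on 2000 IBMX-treated (2 mM) cells per well in HEPES-buffered HBSS.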

[3] = Chemical stability, purity loss by UPLC-UV after 28 days at 40° C. vs 5° C., pH 4.5 acetate buffer (Example 12); assay type: physicochemical; details: 28 days 40° C. vs 5° C.; pH 4.5, 20 mM acetate buffer; 300 μM
Protocol: The chemical stability of the compounds was assessed by storing the compounds under various conditions and then determining the loss of purity by UPLC-UV.
Prior to measuring the chemical stability of a batch of test compound, the purity of the compound was determined through UPLC/MS. For stability testing the target concentration was 300 μM pure compound. Therefore, solutions from solid samples were prepared in a pH 4.5, 20 mM acetate buffer system with a concentration of 300 μM compound based on the previously determined % purity:
At the starting point, UPLC-UV was performed by injection of 2 μl of the undiluted sample. Aliquots were then stored for 28 days at temperatures of 5 and 40° C. […] Then 2 μl samples of the undiluted supernatant were analysed with UPLC-UV. The chemical stability was calculated by the equation: [(purity after 28 days at 5° C.)−(purity after 28 days at 40° C.)]/(purity after 28 days at 5° C.)]×100%. The purity was calculated as: [(peak area compound)/(total peak area)]×100%.

[4] = Solubility in buffer systems by UPLC-UV (Example 13); assay type: physicochemical
Summary of the method: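 Quantitation used UV peak area from UPLC of the 1:10-diluted supernatant, set against a reference-compound standard curve with extinction coefficients adjusted for amino acid sequence.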

[5] = Physical stability, dynamic light scattering assay (Example 15); assay type: physicochemical; details: Buffer A (100 mM acetate, pH 4.5); for Apparent Rh [nm] 4 weeks / Scattering Intensity (I) [%] 4 weeks: 4 weeks at 40° C.
Protocol: The physical stability of the compounds was also assessed using a dynamic light scattering assay.
In the present study, the physical stability of test compounds was assessed by determining the apparent hydrodynamic radius (Rh), the scattering intensity (I) and mass contribution (M) after synthesis (0 weeks) and after storage for 4 weeks at 40° C.
For each solution of test compound, the hydrodynamic radius Rh and the diffusion constant D (related via the Stokes-Einstein equation) were determined as an average over triplicates. Both parameters were determined at different compound concentrations (e.g., Rh1 and D1: 1 mg/ml and Rh5 and D5: 5 mg/ml, Rh10 and D10: 10 mg/mL) in the same buffer system. The difference of these parameters between low and high peptide concentration is a surrogate for the DLS interaction parameter kD. […] In addition, the hydrodynamic radius Rh and the corresponding Scattering Intensity (%) were determined as an average over duplicates. The target concentration was 300 μM. Therefore, solutions from solid samples were prepared in a buffer system with a concentration of 300 μM compound based on the previously determined % purity.
DLS measurements were performed on a DynaPro Plate Reader I (Wyatt Technology, Santa Barbara, CA, US) with an 837 nm laser light source at a scattering angle of 150°. The data were collected and processed with Dynamics V 7.8.1.3 or 7.8.2.18 software provided by Wyatt Technology.
Hydrodynamic radii were determined with non-negatively constrained least squares (NNLS) methods using DYNALS algorithms with regularization fit. […] Samples were tempered over 1 hour at +25° C. and visually inspected before analysis.
Samples were mixed with the aid of a pipet tip. Measurements were performed in 5 replicates. […] The plate was centrifuged for 2 minutes at 600 rcf. After removing the sealing, the samples were measured at +25° C.

[6] = target: T2, CRF1R receptor (Homo sapiens, UniProt P34998); experiment: cAMP activity at anti-target CRF1R, CRF1R-overexpression CHO cell line (Example 9); assay type: cell-based; details: CRF1R-overexpression CHO cell line
T2 construct: host or cells: CHO-K1 clone 2
T2 sequence (P34998 24-415): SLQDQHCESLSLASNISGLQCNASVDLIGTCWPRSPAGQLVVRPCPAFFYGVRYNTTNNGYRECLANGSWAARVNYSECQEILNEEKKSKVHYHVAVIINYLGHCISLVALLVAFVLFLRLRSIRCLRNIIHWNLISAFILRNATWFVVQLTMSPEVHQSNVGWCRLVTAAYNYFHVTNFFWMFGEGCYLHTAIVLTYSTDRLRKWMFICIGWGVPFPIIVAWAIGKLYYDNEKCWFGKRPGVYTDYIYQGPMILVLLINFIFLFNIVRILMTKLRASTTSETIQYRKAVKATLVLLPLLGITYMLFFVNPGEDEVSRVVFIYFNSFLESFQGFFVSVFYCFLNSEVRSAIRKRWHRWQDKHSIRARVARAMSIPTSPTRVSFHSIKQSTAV
Summary of the method: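 Using thawed CRF1R-overexpressing CHO cells at 2000 per well, compound is applied for 30 min at RT in HBSS/HEPES buffer with IBMX. Cellular cAMP content is determined via HTRF, and percent activity is calculated against 1000 nM UCN2 defined as 100%.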

[7] = 0% HSA, read-out: EC50 [nM], 0% HSA
[8] = pH 7.4, Solubility in Buffer C [mg/ml]
[9] = 0.1% HSA, read-out: EC50 [nM], 0.1% HSA

SMILES | EC50 [1, 7] [nM] | EC50 [2] [nM] | Relative purity loss [%] [3] [%] | solubility at 1 h [4, 8] [µg/mL] | Apparent Rh [nm] 0 weeks [5] [nm] | Scattering Intensity (I) [%] 0 weeks [5] [%] | Apparent Rh [nm] 4 weeks [5] [nm] | Scattering Intensity (I) [%] 4 weeks [5] [%] | EC50 [1, 9] [nM] | EC50 ([6]; 0% HSA) [nM] | Emax ([6]; read-out: Emax (%)) [%] | solubility at 1 h ([4]; pH 4.5, Solubility in Buffer A [mg/ml]) [µg/mL] | solubility at 1 h ([4]; pH 4.5, Solubility in Buffer B [mg/ml]) [µg/mL]
CC[C@H](C)[C@H](N)C(=O)N[C@H](C(=O)N[C@@H](CC(C)C)C(=O)N[C@@H](CO)C(=O)N[C@@H](CC(C)C)C(=O)N[C@@H](CC(=O)O)C(=O)N[C@@H](C(=O)N1CCC[C@H]1C(=O)N[C@H](C(=O)N[C@@H](CCCCN)C(=O)N[C@@H](CC(C)C)C(=O)N[C@@H](CCCCNC(=O)COCCOCCNC(=O)COCCOCCNC(=O)CC[C@H](NC(=O)CCCCCCCCCCCCCCCCC(=O)O)C(=O)O)C(=O)N[C@@H](CCC(N)=O)C(=O)N[C@@H](CCCCN)C(=O)N[C@@H](CC(C)C)C(=O)N[C@@H](CC(C)C)C(=O)N[C@@H](CCCCN)C(=O)N[C@@H](CCC(N)=O)C(=O)N[C@@H](CCC(=O)O)C(=O)N[C@@H](CCCNC(=N)N)C(=O)N[C@@H](CCC(N)=O)C(=O)N[C@@H](CCCNC(=N)N)C(=O)N[C@@H](CCCCN)C(=O)NC(C)(C)C(=O)N[C@@H](CCCNC(=N)N)C(=O)N[C@@H](CCC(=O)O)C(=O)N[C@@H](CCC(N)=O)C(=O)N[C@@H](C)C(=O)N[C@@H](CCC(=O)O)C(=O)N[C@@H](CCCCN)C(=O)N[C@@H](CC(N)=O)C(=O)N[C@@H](CCCCN)C(=O)N[C@@H](CCCNC(=N)N)C(=O)N[C@H](C(=O)N[C@@H](CC(C)C)C(=O)N[C@@H](CCC(=O)O)C(=O)N[C@@H](CCCNC(=N)N)C(=O)N[C@H](C(N)=O)C(C)C)[C@@H](C)CC)[C@@H](C)O)C(C)C)C(C)C [compound 36] (H-IVLSLD[dV]PTKLK([AEEA-AEEA-γGlu-C18 diacid])QKLLKQERQRK[Aib]REQAEKNKRILERV-NH2; N-terminus assumed) | 1.45 | 13.3 | 3.65 | > 9700 | 1.42 ± 0.08 | 88 ± 8 | 1.48 ± 0.11 | 98 ± 2 |  |  |  |  | 
CC[C@H](C)[C@H](N)C(=O)N[C@H](C(=O)N[C@@H](CC(C)C)C(=O)N[C@@H](CO)C(=O)N[C@@H](CC(C)C)C(=O)N[C@@H](CC(=O)O)C(=O)N[C@@H](C(=O)N1CCC[C@H]1C(=O)N[C@H](C(=O)N[C@@H](CCCCN)C(=O)N[C@@H](CC(C)C)C(=O)N[C@@H](CCCCNC(=O)COCCOCCNC(=O)COCCOCCNC(=O)CC[C@H](NC(=O)CCCCCCCCCCCCCCCCC(=O)O)C(=O)O)C(=O)N[C@@H](CCC(N)=O)C(=O)N[C@H](C(=O)N[C@@H](CC(C)C)C(=O)N[C@@H](CC(C)C)C(=O)N[C@@H](CCCCN)C(=O)N[C@@H](CCC(N)=O)C(=O)N[C@@H](CCC(=O)O)C(=O)N[C@@H](CCCNC(=N)N)C(=O)N[C@@H](CCC(N)=O)C(=O)N[C@@H](CCCCN)C(=O)N[C@@H](CCCCN)C(=O)N[C@@H](CCC(N)=O)C(=O)N[C@@H](CCCNC(=N)N)C(=O)N[C@@H](CCC(=O)O)C(=O)N[C@@H](CCCCN)C(=O)N[C@@H](C)C(=O)N[C@@H](CCC(=O)O)C(=O)N[C@@H](CCCCN)C(=O)N[C@@H](CC(N)=O)C(=O)N[C@@H](CCCCN)C(=O)N[C@@H](CCC(N)=O)C(=O)N[C@H](C(=O)N[C@@H](CC(C)C)C(=O)N[C@@H](C)C(=O)N[C@@H](CCC(N)=O)C(=O)N[C@H](C(N)=O)C(C)C)[C@@H](C)CC)[C@@H](C)CC)[C@@H](C)CC)C(C)C)C(C)C [compound 138] (H-IVLSLD[dV]PIKLK([AEEA-AEEA-γGlu-C18 diacid])QILLKQERQKKQREKAEKNKQILAQV-NH2; N-terminus assumed) | 0.06 | 0.26 | 2.85 | 8200 (≈ 1570 µM) | 2.75 ± 0.19 | 86 ± 4 | 2.82 ± 0.11 | 84 ± 1 | 3.12 | > 1000 | 4.38 | > 8600 | > 8700
CC[C@H](C)[C@H](N)C(=O)N[C@H](C(=O)N[C@@H](CC(C)C)C(=O)N[C@@H](CO)C(=O)N[C@@H](CC(C)C)C(=O)N[C@@H](CC(=O)O)C(=O)N[C@@H](C(=O)N1CCC[C@H]1C(=O)N[C@H](C(=O)N[C@@H](CCCCN)C(=O)N[C@@H](CC(C)C)C(=O)N[C@@H](CCCCNC(=O)COCCOCCNC(=O)COCCOCCNC(=O)CC[C@H](NC(=O)CCCCCCCCCCCCCCCCC(=O)O)C(=O)O)C(=O)N[C@@H](CCC(N)=O)C(=O)N[C@H](C(=O)N[C@@H](CC(C)C)C(=O)N[C@@H](CC(C)C)C(=O)N[C@@H](CCC(=O)O)C(=O)N[C@@H](CCC(N)=O)C(=O)N[C@@H](C)C(=O)N[C@@H](CCCNC(=N)N)C(=O)N[C@@H](CCC(N)=O)C(=O)N[C@@H](CCCCN)C(=O)NC(C)(C)C(=O)N[C@@H](CCC(N)=O)C(=O)N[C@@H](CCCNC(=N)N)C(=O)N[C@@H](C)C(=O)N[C@@H](CCC(N)=O)C(=O)N[C@@H](C)C(=O)N[C@@H](CCC(=O)O)C(=O)N[C@@H](CCCCN)C(=O)N[C@@H](CC(N)=O)C(=O)N[C@@H](CCCCN)C(=O)N[C@@H](CCCNC(=N)N)C(=O)N[C@H](C(=O)N[C@@H](CC(C)C)C(=O)N[C@@H](CCC(=O)O)C(=O)N[C@@H](CCCNC(=N)N)C(=O)N[C@H](C(N)=O)C(C)C)[C@@H](C)CC)[C@@H](C)CC)[C@@H](C)CC)C(C)C)C(C)C [compound 140] (H-IVLSLD[dV]PIKLK([AEEA-AEEA-γGlu-C18 diacid])QILLEQARQK[Aib]QRAQAEKNKRILERV-NH2; N-terminus assumed) | 0.04 | 0.1 | 4.30 |  |  |  |  |  | 1.27 |  |  |  | 
